Patent US20260070902A1, “SULFONYL DERIVATIVES AS CCR6 INHIBITORS” (Hoffmann-La Roche Inc., priority 2022, published 2026)

Tests used:
Type in all cases: cell-based
[1] = molecular target: T1, human CCR6 (Homo sapiens, UniProt P51684); assay: Human CCR6-CRE reporter assay; set-up: The second construct contained the open reading frame of human CCR6 in the pUNO1 backbone; host or cells: 293FT cells; details: relative -Log IC50; 293FT cells transfected with human CCR6 and CRE-luciferase reporter; 6 μM Forskolin, 6 nM CCL20; 5 h
T1 sequence (P51684 1-374): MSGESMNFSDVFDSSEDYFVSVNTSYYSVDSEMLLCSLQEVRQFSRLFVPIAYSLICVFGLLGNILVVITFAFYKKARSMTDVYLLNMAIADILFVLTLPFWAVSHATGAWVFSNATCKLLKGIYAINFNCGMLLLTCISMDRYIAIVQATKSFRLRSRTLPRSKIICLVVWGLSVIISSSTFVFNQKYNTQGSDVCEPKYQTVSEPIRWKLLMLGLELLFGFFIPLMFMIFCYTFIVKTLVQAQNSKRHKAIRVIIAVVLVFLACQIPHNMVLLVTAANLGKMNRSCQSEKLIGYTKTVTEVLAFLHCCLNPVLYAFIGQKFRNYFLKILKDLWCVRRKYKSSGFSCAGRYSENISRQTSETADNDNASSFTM
Method in brief: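 293FT cells transiently co-transfected with human CCR6 and a CRE-luc2P reporter, used 48 h later. Compounds incubated with cells in medium containing 6 μM Forskolin and 6 nM CCL20 (assay-medium levels), 0.1% DMSO final, 5 h at 37° C; luminescence read, relative −Log IC50 from four-parameter fit.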

[2] = tested on: Human CD4+ T cells; assay: CD4+ T cells chemotaxis assay towards CCL20; details: Homo sapiens, CD4+ T cell, 3 h, relative -Log IC50, human CD4+ T cells stimulated with anti-CD3 and anti-CD28, migration towards 150 ng/ml CCL20
Method in brief: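 Donor cells were stimulated overnight with anti-CD3/anti-CD28, then preincubated with compound for 30 min at 37° C (0.2% DMSO final). Migration through […]-pore Transwells toward 150 ng/ml CCL20 ran for 3 h at 37° C. Migrated cells were counted by CellTiter Glo, and relative −Log IC50 came from a four-parameter fit of % inhibition.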

[3] = molecular target: T1, human CCR6; assay: CHO-K1 CCR6 chemotaxis assay towards CCL20; details: relative -Log IC50; CHO-K1 cells overexpressing human CCR6; migration towards 100 ng/ml CCL20; 4 h
Method in brief: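 Human CCR6-overexpressing CHO-K1 cells (2*10^6 cells/ml) were preincubated 30 min at 37 °C with compound (0.2% DMSO), then allowed to migrate 4 h through 8 µm Transwell pores toward 100 ng/ml CCL20. Migrated cells were counted by CellTiter Glo. −Log IC50 came from four-parameter fits normalised to DMSO without/with CCL20.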

Row | IC50 [1] [nM] | IC50 [2] [nM] | IC50 [3] [nM] | Structure (SMILES)
1 | 63.1 | 0.794 | 10 | CC(C)c1nnc2ccc(-c3ccc(S(=O)(=O)[C@H]4CC[C@H](Nc5ccc(S(F)(F)(F)(F)F)cn5)CC4)cc3)cn12 [Example 178, 5-(pentafluoro-λ^6-sulfanyl)-N-[trans-4-{4-[3-(propan-2-yl)-[1,2,4]triazolo[4,3-a]pyridin-6-yl]benzenesulfonyl}cyclohexyl]pyridin-2-amine]
2 | 158 | 5.01 | 79.4 | Cc1nc2cc(-c3ccc(S(=O)(=O)[C@H]4CC[C@H](Nc5ccc(S(F)(F)(F)(F)F)cc5)CC4)cc3)ccn2n1 [Example 41, 4-(pentafluoro-λ^6-sulfanyl)-N-[trans-4-(4-{2-methyl-[1,2,4]triazolo[1,5-a]pyridin-7-yl}benzenesulfonyl)cyclohexyl]aniline]
3 | 63.1 | 2 | 7.94 | CC(C)c1nnc2cnc(-c3ccc(S(=O)(=O)[C@H]4CC[C@H](Nc5ccc(S(F)(F)(F)(F)F)cc5)CC4)cc3)cn12 [Example 51, 4-(pentafluoro-λ^6-sulfanyl)-N-[trans-4-{4-[3-(propan-2-yl)-[1,2,4]triazolo[4,3-a]pyrazin-6-yl]benzenesulfonyl}cyclohexyl]aniline]
4 | 79.4 | 6.31 | 10 | Cc1nnc2ccc(-c3ccc(S(=O)(=O)[C@H]4CC[C@H](Nc5ccc(S(F)(F)(F)(F)F)cn5)CC4)cc3)cn12 [Example 179, 5-(pentafluoro-λ^6-sulfanyl)-N-[trans-4-(4-{3-methyl-[1,2,4]triazolo[4,3-a]pyridin-6-yl}benzenesulfonyl)cyclohexyl]pyridin-2-amine]
5 | 126 | 50.1 | 158 | CC(C)c1nnc2ccc(-c3ccc(S(=N)(=O)[C@H]4CC[C@H](Nc5ccc(S(F)(F)(F)(F)F)cc5)CC4)cc3)cn12 (relative stereo) [Example 102, {4-[3-(propan-2-yl)-[1,2,4]triazolo[4,3-a]pyridin-6-yl]phenyl}[trans-4-{[4-(pentafluoro-λ^6-sulfanyl)phenyl]Amino}cyclohexyl](imino)-λ^6-sulfanone]
6 | 126 | 25.1 | 100 | CC(C)c1nnc2ccc(-c3ccc(S(=O)(=O)[C@H]4CC[C@H](Nc5ccc(S(F)(F)(F)(F)F)cc5)CC4)cc3)nn12 [Example 50, 4-(pentafluoro-λ^6-sulfanyl)-N-[trans-4-{4-[3-(propan-2-yl)-[1,2,4]triazolo[4,3-b]pyridazin-6-yl]benzenesulfonyl}cyclohexyl]aniline]
7 | 79.4 | 0.501 | 3.98 | CC(C)c1nnc2ccc(-c3ccc(S(=O)(=O)[C@H]4CC[C@H](Nc5ccc(S(F)(F)(F)(F)F)cc5)CC4)cc3)cn12 [Example 35, 4-(pentafluoro-λ^6-sulfanyl)-N-[trans-4-{4-[3-(propan-2-yl)-[1,2,4]triazolo[4,3-a]pyridin-6-yl]benzenesulfonyl}cyclohexyl]aniline]
8 | 79.4 | 2 | 5.01 | NC(=O)c1cc(-c2ccc(S(=O)(=O)[C@H]3CC[C@H](Nc4ccc(S(F)(F)(F)(F)F)cc4)CC3)cc2)ccn1 [Example 10, 4-(4-{[trans-4-{[4-(pentafluoro-λ^6-sulfanyl)phenyl]Amino}cyclohexyl]sulfonyl}phenyl)pyridine-2-carboxamide]
9 | 39.8 | 0.631 | 25.1 | Cc1[nH]nc2ccc(-c3ccc(S(=O)(=O)[C@H]4CC[C@H](Nc5ccc(S(F)(F)(F)(F)F)cc5)CC4)cc3)cc12 [Example 6, 4-(pentafluoro-λ^6-sulfanyl)-N-[trans-4-[4-(3-methyl-2H-indazol-5-yl)benzenesulfonyl]cyclohexyl]aniline]

Continued, molecule first:

Row | Structure (SMILES) | IC50 [1] [nM] | IC50 [2] [nM] | IC50 [3] [nM]
10 | O=S(=O)(c1ccc(-c2ccc3nccn3c2)cc1)[C@H]1CC[C@H](Nc2ccc(S(F)(F)(F)(F)F)cn2)CC1 [Example 180, 5-(pentafluoro-λ^6-sulfanyl)-N-[trans-4-(4-{imidazo[1,2-a]pyridin-6-yl}benzenesulfonyl)cyclohexyl]pyridin-2-amine] | 100 | 7.94 | 25.1
11 | CC(C)c1nnc2ccc(-c3ccc(S(=O)(=O)N4CCC(Nc5ccc(S(F)(F)(F)(F)F)cn5)CC4)cc3)cn12 [Example 172, 5-(pentafluoro-λ^6-sulfanyl)-N-(1-{4-[3-(propan-2-yl)-[1,2,4]triazolo[4,3-a]pyridin-6-yl]benzenesulfonyl}piperidin-4-yl)pyridin-2-amine] | 20 | 1 | 7.94
12 | Cc1n[nH]c2ccc(-c3ccc(S(=N)(=O)[C@H]4CC[C@H](Nc5ccc(S(F)(F)(F)(F)F)cc5)CC4)cc3)cc12 (stereo partly drawn) [Example 86, [4-(3-methyl-1H-indazol-5-yl)phenyl][trans-4-{[4-(pentafluoro-λ^6-sulfanyl)phenyl]Amino}cyclohexyl](imino)-λ^6-sulfanone] | 126 | 79.4 | 79.4
13 | Cc1nnc2ccc(-c3ccc(S(=O)(=O)N4CCC(Nc5ccc(S(F)(F)(F)(F)F)cn5)CC4)cc3)cn12 [Example 174, N-[1-(4-{3-methyl-[1,2,4]triazolo[4,3-a]pyridin-6-yl}benzenesulfonyl)piperidin-4-yl]-5-(pentafluoro-λ^6-sulfanyl)pyridin-2-amine] | 25.1 | 2.51 | 5.01
14 | Cc1cnc2ccc(-c3ccc(S(=N)(=O)[C@H]4CC[C@H](Nc5ccc(S(F)(F)(F)(F)F)cc5)CC4)cc3)cn12 (stereo partly drawn) [Example 89, (4-{3-methylimidazo[1,2-a]pyridin-6-yl}phenyl)[trans-4-{[4-(pentafluoro-λ^6-sulfanyl)phenyl]Amino}cyclohexyl](imino)-λ^6-sulfanone] | 158 | 39.8 | 79.4
15 | N#Cc1cnc2ccc(-c3ccc(S(=N)(=O)[C@H]4CC[C@H](Nc5ccc(S(F)(F)(F)(F)F)cc5)CC4)cc3)cn12 (stereo partly drawn) [Example 90, 6-(4-{[trans-4-{[4-(pentafluoro-λ^6-sulfanyl)phenyl]Amino}cyclohexyl]sulfonimidoyl}phenyl)imidazo[1,2-a]pyridine-3-carbonitrile] | 158 | 25.1 | 63.1
